# Source: patent US9399649B2, “Compounds for treating spinal muscular atrophy” (PTC Therapeutics Inc., priority 2012, dated 2016)
# How the values were obtained:
# [1] = tested on: full length SMN2 minigene mRNA containing SMN2 exon 7; assay: SMN2 minigene mRNA splicing RT-qPCR assay in cultured cells; type: cell-based, human; conditions: Homo sapiens, HEK293-H; HEK293H cells stably transfected with SMN2-A minigene, 24 hours, 7-point concentration curve; concentration giving 1.5-fold full length SMN2 mRNA vs vehicle; read-out: EC1.5x for production of full length SMN2 mRNA
# Procedure, shortened: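 Read-out is minigene FL mRNA (exon 7 included) relative to vehicle, from efficiency-corrected ΔΔCt with GAPDH normalisation. Primers and probe span exon 7, exon 8 and luciferase, so endogenous SMN is not detected. Stable SMN2-A minigene HEK293H cells, 24 h compound exposure at 37 °C, 7-point curve in duplicate.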
# Smn protein = Smn protein assay in cultured cells (SMN HTRF); type: cell-based, human; conditions: SMA patient fibroblast cells (GM03813), 48 hours; for EC1.5x for Smn protein expression: 7-point concentration curve, concentration producing 1.5 times Smn protein vs DMSO vehicle; for maximum fold (Fold) increase of Smn protein: 7-point concentration data, relative to vehicle control
# Procedure, shortened: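 Smn protein measured by HTRF (anti-SMN d2/kryptate) in lysates of SMA patient fibroblasts after 48 h compound treatment, 7-point 3.16-fold dilutions, triplicates. The 665/620 nm ratio is blank-corrected to ΔF, then divided by the vehicle ΔF to give fold increase.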
SMILES,melting point,EC (1.5-fold) [1] [µM],EC1.5x for Smn protein expression (Smn protein),maximum fold (Fold) increase of Smn protein (Smn protein)
"Cc1cn2cc(-c3cc4ccc(N5CCNCC5)cc4c(=O)o3)nc2cn1 [Cpd 56, 3-(6-methylimidazo[1,2-a]pyrazin-2-yl)-7-(piperazin-1-yl)-1H-isochromen-1-one]",225 to 227 °C,≤ 0.1,**** (an EC1.5×≦0.3 nM is indicated by four stars (****)),***** (a fold increase >1.65 is indicated by five stars (*****))
"Cc1cn2cc(-c3cc4ccc(N5CCN[C@@H](C)C5)cc4c(=O)o3)nc2cn1 [Cpd 57, 3-(6-methylimidazo[1,2-a]pyrazin-2-yl)-7-[(3S)-3-methylpiperazin-1-yl]-1H-isochromen-1-one]",242 to 244 °C,≤ 0.1,**** (an EC1.5×≦0.3 nM is indicated by four stars (****)),***** (a fold increase >1.65 is indicated by five stars (*****))
"Cc1cn2cc(-c3cc4ccc(N5C[C@@H](C)N[C@@H](C)C5)cc4c(=O)o3)nc2cn1 [Cpd 58, 7-[(3R,5S)-3,5-dimethylpiperazin-1-yl]-3-(6-methylimidazo[1,2-a]pyrazin-2-yl)-1H-isochromen-1-one]",279 to 281 °C,≤ 0.1,**** (an EC1.5×≦0.3 nM is indicated by four stars (****)),***** (a fold increase >1.65 is indicated by five stars (*****))
"O=c1oc(-c2cn3cccc(Cl)c3n2)cc2ccc(N3CCNCC3)cc12 [Cpd 59, 3-(8-chloroimidazo[1,2-a]pyridin-2-yl)-7-(piperazin-1-yl)-1H-isochromen-1-one]",343 to 345 °C,1 to 3,–,** (a fold increase between >1.2 and ≦1.35 is indicated by two stars (**))
"C[C@H]1CN(c2ccc3cc(-c4cn5cccc(Cl)c5n4)oc(=O)c3c2)CCN1 [Cpd 60, 3-(8-chloroimidazo[1,2-a]pyridin-2-yl)-7-[(3S)-3-methylpiperazin-1-yl]-1H-isochromen-1-one]",314 to 316 °C,0.3 to 1,–,*** (a fold increase between >1.35 and ≦1.5 is indicated by three stars (***))
"CN1CCN(c2ccc3cc(-c4cn5cccc(Cl)c5n4)oc(=O)c3c2)CC1 [Cpd 61, 3-(8-chloroimidazo[1,2-a]pyridin-2-yl)-7-(4-methylpiperazin-1-yl)-1H-isochromen-1-one]",240 °C (dec.),1 to 3,–,* (A maximum fold increase of ≦1.2 is indicated by one star (*))
"Cc1cn2cc(-c3cc4ccc(N5CCN[C@@H](C)C5)cc4c(=O)o3)nc2c(C)n1 [Cpd 63, 3-(6,8-dimethylimidazo[1,2-a]pyrazin-2-yl)-7-[(3S)-3-methylpiperazin-1-yl]-1H-isochromen-1-one]",325 to 327 °C,≤ 0.1,**** (an EC1.5×≦0.3 nM is indicated by four stars (****)),***** (a fold increase >1.65 is indicated by five stars (*****))
"Cc1cn2cc(-c3cc4ccc(N5C[C@@H](C)N[C@@H](C)C5)cc4c(=O)o3)nc2c(C)n1 [Cpd 64, 3-(6,8-dimethylimidazo[1,2-a]pyrazin-2-yl)-7-[(3R,5S)-3,5-dimethylpiperazin-1-yl]-1H-isochromen-1-one]",244 to 246 °C,≤ 0.1,**** (an EC1.5×≦0.3 nM is indicated by four stars (****)),***** (a fold increase >1.65 is indicated by five stars (*****))
"COc1ccc(-c2cc3ccc(N4CCN(C)[C@@H](C)C4)cc3c(=O)o2)cc1OC [Cpd 67, 3-(3,4-dimethoxyphenyl)-7-[(3S)-3,4-dimethylpiperazin-1-yl]-1H-isochromen-1-one]",138 to 140 °C,0.3 to 1,"** (an EC1.5× between >1 μM, and ≦3 nM is indicated by two stars (**))",*** (a fold increase between >1.35 and ≦1.5 is indicated by three stars (***))
"Cc1cn2cc(-c3cc4ccc(N5CCN6CCC[C@@H]6C5)cc4c(=O)o3)nc2cn1 [Cpd 68, 7-[(8aR)-hexahydropyrrolo[1,2-a]pyrazin-2(1H)-yl]-3-(6-methylimidazo[1,2-a]pyrazin-2-yl)-1H-isochromen-1-one]",255 to 257 °C,≤ 0.1,* (An EC1.5× for Smn protein expression between >3 μM and <10 μM is indicated by one star (*)),**** (a fold increase between >1.5 and ≦1.65 is indicated by four stars (****))
"Cc1cn2cc(-c3cc4ccc(N5CCN[C@H](C)C5)cc4c(=O)o3)nc2c(C)n1 [Cpd 71, 3-(6,8-dimethylimidazo[1,2-a]pyrazin-2-yl)-7-[(3R)-3-methylpiperazin-1-yl]-1H-isochromen-1-one]",331 to 333 °C,≤ 0.1,**** (an EC1.5×≦0.3 nM is indicated by four stars (****)),***** (a fold increase >1.65 is indicated by five stars (*****))

# Second part, led by results:
melting point,SMILES,EC (1.5-fold) [1] [µM],EC1.5x for Smn protein expression (Smn protein),maximum fold (Fold) increase of Smn protein (Smn protein)
255 to 256 °C,"Cc1cn2cc(-c3cc4ccc(N5CCN(C)[C@@H](C)C5)cc4c(=O)o3)nc2c(C)n1 [Cpd 66, 3-(6,8-dimethylimidazo[1,2-a]pyrazin-2-yl)-7-[(3S)-3,4-dimethylpiperazin-1-yl]-1H-isochromen-1-one]",≤ 0.1,**** (an EC1.5×≦0.3 nM is indicated by four stars (****)),***** (a fold increase >1.65 is indicated by five stars (*****))
252 to 254 °C,"Cc1cn2cc(-c3cc4ccc(N5CCN(C)[C@H](C)C5)cc4c(=O)o3)nc2c(C)n1 [Cpd 72, 3-(6,8-dimethylimidazo[1,2-a]pyrazin-2-yl)-7-[(3R)-3,4-dimethylpiperazin-1-yl]-1H-isochromen-1-one]",≤ 0.1,*** (an EC1.5× between >0.3 nM and ≦1 nM is indicated by three stars (***)),***** (a fold increase >1.65 is indicated by five stars (*****))
238 to 240 °C,"CCN1CCN(c2ccc3cc(-c4cn5cc(C)nc(C)c5n4)oc(=O)c3c2)CC1 [Cpd 73, 3-(6,8-dimethylimidazo[1,2-a]pyrazin-2-yl)-7-(4-ethylpiperazin-1-yl)-1H-isochromen-1-one]",≤ 0.1,**** (an EC1.5×≦0.3 nM is indicated by four stars (****)),***** (a fold increase >1.65 is indicated by five stars (*****))
260 to 262 °C,"Cc1cn2cc(-c3cc4ccc(N5CCN(C(C)C)CC5)cc4c(=O)o3)nc2c(C)n1 [Cpd 74, 3-(6,8-dimethylimidazo[1,2-a]pyrazin-2-yl)-7-[4-(propan-2-yl)piperazin-1-yl]-1H-isochromen-1-one]",≤ 0.1,**** (an EC1.5×≦0.3 nM is indicated by four stars (****)),***** (a fold increase >1.65 is indicated by five stars (*****))
248 to 250 °C,"Cc1cn2cc(-c3cc4ccc(N5CCN(CCO)CC5)cc4c(=O)o3)nc2c(C)n1 [Cpd 75, 3-(6,8-dimethylimidazo[1,2-a]pyrazin-2-yl)-7-[4-(2-hydroxyethyl)piperazin-1-yl]-1H-isochromen-1-one]",≤ 0.1,*** (an EC1.5× between >0.3 nM and ≦1 nM is indicated by three stars (***)),***** (a fold increase >1.65 is indicated by five stars (*****))
219 to 221 °C,"Cc1cn2cc(-c3cc4ccc(N5CCN(C)CC5)cc4c(=O)o3)cc2c(C)n1 [Cpd 76, 3-(1,3-dimethylpyrrolo[1,2-a]pyrazin-7-yl)-7-(4-methylpiperazin-1-yl)-1H-isochromen-1-one]",≤ 0.1,"** (an EC1.5× between >1 μM, and ≦3 nM is indicated by two stars (**))",*** (a fold increase between >1.35 and ≦1.5 is indicated by three stars (***))
202 to 204 °C,"CCN1CCN(c2ccc3cc(-c4cc5c(C)nc(C)cn5c4)oc(=O)c3c2)CC1 [Cpd 77, 3-(1,3-dimethylpyrrolo[1,2-a]pyrazin-7-yl)-7-(4-ethylpiperazin-1-yl)-1H-isochromen-1-one]",≤ 0.1,*** (an EC1.5× between >0.3 nM and ≦1 nM is indicated by three stars (***)),*** (a fold increase between >1.35 and ≦1.5 is indicated by three stars (***))
213 to 215 °C,"Cc1cn2cc(-c3cc4ccc(N5CCN(C(C)C)CC5)cc4c(=O)o3)cc2c(C)n1 [Cpd 78, 3-(1,3-dimethylpyrrolo[1,2-a]pyrazin-7-yl)-7-[4-(propan-2-yl)piperazin-1-yl]-1H-isochromen-1-one]",≤ 0.1,–,*** (a fold increase between >1.35 and ≦1.5 is indicated by three stars (***))
